Several values for one entry are separate records, joined by “and”; a condition that tells them apart may be missing. Equal entries are not always repeated. Where two headings read alike, the source gives them in different places. Marks after values point to notes of the source that are not given here.
Experiments:
Format in all cases: in vivo
[1] = test system: collagen antibody-induced arthritis in Balb C mice; experiment: Mouse CAIA, hind paw volume / footpad swelling (Example 4); parameters: Mean Disease Burden / Hind Limb Volume, Mean Diff. / Total Disease, Mean Diff.: unit not given here; conditions: for Total Footpad Thickness, Day of Study 8: day 8; for Total Footpad Thickness, Day of Study 11: day 11; for Total Footpad Thickness, Day of Study 12: day 12; for Total Footpad Thickness, Day of Study 13: day 13; for Total Footpad Thickness, Day of Study 15: day 15; for Total Footpad Thickness, Day of Study 19: day 19; for Total Footpad Thickness, Day of Study 22: day 22; for % Disease Suppression: footpad thickness AUC vs vehicle; for Total Disease Burden (AUC): footpad thickness days 8-22, in mL·day
[2] = test system: collagen antibody-induced arthritis in Balb C mice; experiment: Mouse CAIA, clinical score (Example 4); parameters: key to Mean Maximum Clinical Score: scored 0 to 60, sum of 4 limbs
[3] = test system: collagen antibody-induced arthritis in Balb C mice; experiment: Mouse CAIA, histopathology of hind limbs (ankle, H & E) (Example 4)
[4] = Mouse CAIA, body weight and tolerability (Example 4)
Experimental: Balb C mice (n=10 per cohort) were used to determine the efficacy of Factor H (FH) during transplant rejection. The mice were treated with ArthritoMAb (anti-collagen) antibody cocktail (2 mg, i.v.) on day 1, followed 7 days later with an injection of LPS (50 μg, i.p.). On day 8, hind paw volumes were measured for each animal and distributed to various treatment groups.
Hind paw volumes were measured on day 8, 11, 12, 13, 15, 19 and 22 (endpoint). The age at start date was 7 to 9 weeks. Body weights were measured bi-weekly to the endpoint (Table 4). At the endpoint, tissue samples were processed for histology and submitted to a pathologist for independent analysis. Sampling 1 was performed at the endpoint. The hind limbs were preserved in 10% formalin. Sampling 2 was performed at the endpoint for group 4 animals. Blood was collected by terminal cardiac puncture. The blood was processed for anti-coagulant. The kidneys were additionally preserved in formalin and followed with 70% EtOH. Samples were scored for inflammation, pannus (granulation tissue), cartilage damage, bone resorption and exostosis (Table 5).

[5] = Dunnett's Multiple Comparison Test, G1 vehicle vs treatment
[6] = Dunnett's Multiple Comparison Test, vehicle vs treatment
[7] = Dunn's Multiple Comparison Test, G1 vehicle vs treatment
[8] = ankle, group mean, score 0 = normal to 5 = severe
[9] = ankle, individual animal, score 0 = normal to 5 = severe
[10] = ankle, individual animal, score 0 = normal to 5 = severe, listed as Group 2

C[C@@H]1C[C@H]2[C@@H]3CCC4=CC(=O)C=C[C@]4(C)[C@@]3(F)[C@@H](O)C[C@]2(C)[C@@]1(O)C(=O)CO [Dexamethasone]
Mean Disease Burden ([1]; AUC of combined footpad volume over baseline, days 8 to 22, group mean, vehicle 1.93): −0.32***
Total Disease, 95% CI of diff [1, 5]: 1.50 to 3.00
Total Disease, Mean Diff. [1, 5]: 2.25
Total Disease, Summary [1, 5]: *** (***= P < 0.001)
Total Disease, q [1, 5]: 7.36
Hind Limb Volume, 95% CI of diff [1, 6]: 0.09687 to 0.2080
Hind Limb Volume, Mean Diff. [1, 6]: 0.1524
Hind Limb Volume, Summary [1, 6]: *** (***= P < 0.001)
Hind Limb Volume, q [1, 6]: 6.877
Total Footpad Thickness, Day of Study 8 ([1]; group mean, n 10): 0.35 mL
Total Footpad Thickness, Day of Study 8 ([1]; individual animals (A# 1-10)): 0.42 mL and 0.39 mL (2×) and 0.37 mL and 0.35 mL and 0.34 mL and 0.33 mL and 0.31 mL (2×) and 0.3 mL
Total Footpad Thickness, Day of Study 11 ([1]; group mean, n 10): 0.32 mL
Total Footpad Thickness, Day of Study 11 ([1]; individual animals (A# 1-10)): 0.30 mL and 0.34 mL and 0.32 mL (3×) and 0.3 mL (3×) and 0.35 mL and 0.31 mL
Total Footpad Thickness, Day of Study 12 ([1]; group mean, n 10): 0.34 mL
Total Footpad Thickness, Day of Study 12 ([1]; individual animals (A# 1-10)): 0.34 mL (4×) and 0.28 mL and 0.35 mL and 0.32 mL and 0.31 mL and 0.39 mL and 0.37 mL
Total Footpad Thickness, Day of Study 13 ([1]; group mean, n 10): 0.33 mL
Total Footpad Thickness, Day of Study 13 ([1]; individual animals (A# 1-10)): 0.31 mL (2×) and 0.3 mL (2×) and 0.36 mL and 0.38 mL (2×) and 0.33 mL and 0.35 mL and 0.29 mL
Total Footpad Thickness, Day of Study 15 ([1]; group mean, n 10): 0.31 mL
Total Footpad Thickness, Day of Study 15 ([1]; individual animals (A# 1-10)): 0.37 mL and 0.33 mL and 0.29 mL (3×) and 0.38 mL and 0.26 mL and 0.3 mL (2×) and 0.27 mL
Total Footpad Thickness, Day of Study 19 ([1]; group mean, n 10): 0.34 mL
Total Footpad Thickness, Day of Study 19 ([1]; individual animals (A# 1-10)): 0.35 mL (4×) and 0.28 mL and 0.3 mL and 0.38 mL and 0.37 mL and 0.32 mL and 0.0 mL
Total Footpad Thickness, Day of Study 22 ([1]; group mean, n 10): 0.31 mL
Total Footpad Thickness, Day of Study 22 ([1]; individual animals (A# 1-10)): 0.39 mL and 0.42 mL and 0.3 mL and 0.32 mL and 0.29 mL (2×) and 0.35 mL (2×) and 0.31 mL and 0.25 mL
% Disease Suppression ([1]; group mean, n 10): 116.49%
% Disease Suppression ([1]; individual animals (A# 1-10)): 139.7% and 129.0% and 162.5% and 125.0% and 114.5% and 102.9% and 104.7% and 87.3% and 96.1% and 101.3%
Total Disease Burden (AUC) ([1]; group mean, n 10): −0.32
Total Disease Burden (AUC) ([1]; individual animals (A# 1-10)): −0.77 and −0.51 and −1.21 and −0.54 and −0.28 and −0.06 and −0.09 and 0.25 and 0.10 and −0.02
Maximum Δ Mean Volume ([1]; mean combined foot pad volume, day 8 vs median day of maximal swelling, vehicle 0.21): 0.03*** ml
% Disease Suppression (vs Vehicle) ([1]; percent decrease in total disease burden relative to vehicle): 116.5%
Clinical Score, Difference in rank sum [2, 7]: 23.95
Clinical Score, Summary [2, 7]: *** (***= P < 0.001)
Clinical score, Mean ([2]; day 8, group mean n=10): 4.00
Clinical score ([2]; day 8, individual animal): 5 (2×) and 10 (3×) and 0 (5×)
Clinical score, Mean ([2]; day 11, group mean n=10): 0.10
Clinical score ([2]; day 11, individual animal): 0 (9×) and 1
Clinical score, Mean ([2]; day 12, group mean n=10): 5.70
Clinical score ([2]; day 12, individual animal): 0 (3×) and 10 (4×) and 5 (2×) and 7
Clinical score, Mean ([2]; day 13, group mean n=10): 6.00
Clinical score ([2]; day 13, individual animal): 0 (4×) and 10 (6×)
Clinical score, Mean ([2]; day 15, group mean n=10): 0.00
Clinical score ([2]; day 15, individual animal): 0
Clinical score, Mean ([2]; day 19, group mean n=10): 0.00
Clinical score ([2]; day 19, individual animal): 0
Clinical score, Mean ([2]; day 22, group mean n=10): 0.00
Clinical score ([2]; day 22, individual animal): 0
Day (of Max Clin Score), Mean ([2]; group line 'Mean', day of study): 12.00
Max Clin Score, Mean ([2]; group mean n=10): 9.20
Max Clin Score ([2]; individual animal): 5 and 10 (8×) and 7
Day (of Max Clin Score) ([2]; individual animal, day of study): 8 (4×) and 13 (2×) and 12 (4×)
Mean Maximum Clinical Score ([2]; scored from 0 to 60, sum of 4 limbs, vehicle 45.4): 9.2***
Score From H & E, Bone Resorption [3]: 0.8 ± 0.9
Cartilage, Difference in rank sum [3, 7]: 9.25
Composite, Difference in rank sum [3, 7]: 14.05
Composite, Summary [3, 7]: * (*= P < 0.05)
Exostosis, Difference in rank sum [3, 7]: 13.1
Exostosis, Summary [3, 7]: ** (**= P < 0.01)
Inflammation, Difference in rank sum [3, 7]: 14.95
Inflammation, Summary [3, 7]: ** (**= P < 0.01)
Pannus, Difference in rank sum [3, 7]: 11.4
Composite Histopathaligy Score ([3]; ankle, group mean): 0.2 ± 0.1
Score From H & E, Cartilage Damage [3, 8]: 0.9 ± 0.8
Score From H & E, Inflammation [3, 8]: 0.3 ± 0.1
Score From H & E, Pannus [3, 8]: 0.1 ± 0.1
Score From H & E, Periosteal Exostotic Changes [3, 8]: 0.9 ± 0.8
Score From H & E, Bone Resorption [3, 9]: 0
Score From H & E, Cartilage Damage [3, 9]: 0
Score From H & E, Periosteal Exostotic Changes [3, 9]: 0
Score From H & E, Inflammation [3, 10]: 0 (9×) and 1
Score From H & E, Pannus [3, 10]: 1 and 0 (9×)
Composite Histopathaligy Score ([3]; ankle, individual animal, listed as Group 2): 3 and 0 (8×) and 1
Bone Resorption ([3]; histopathology summary, graded 1-5, vehicle 0.6 ± 0.3): 0 ± 0^ns
Pannus ([3]; histopathology summary, graded 1-5, vehicle 1.0 ± 0.3): 0.1 ± 0.1^ns
Inflammation ([3]; histopathology summary, graded 1-5, vehicle 2.0 ± 0.5): 0.1 ± 0.1
Exostosis ([3]; histopathology summary, graded 1 to 5, vehicle 2.6 ± 0.5): 0 ± 0
Cartilage Damage ([3]; histopathology summary, vehicle 0.5 ± 0.2): 0 ± 0^ns
Composite Score ([3]; histopathology summary, vehicle 6.7 ± 1.7): 0.2 ± 0.1
Body Weight, Wt (g), Mean ([4]; day 1, group mean n=10, before dosing start (day 8)): 17.7 g
Body Weight, Wt (g), Mean ([4]; day 5, group mean n=10, before dosing start (day 8)): 17.9 g
Body Weight, Wt (g), Mean ([4]; day 8, group mean n=10): 16.3 g
Body Weight, Wt (g), Mean ([4]; day 12, group mean n=10): 16.8 g
Body Weight, Wt (g), Mean ([4]; day 15, group mean n=10): 16.7 g
Body Weight, Wt (g), Mean ([4]; day 19, group mean n=10): 16.5 g
Body Weight, Wt (g), Mean ([4]; day 22, group mean n=10): 16.5 g
Mean Body Weigh at Nadir ([4]; lowest group mean body weight as % change from day 1, vehicle −8.0%): −7.7%
